{"source": "ChEMBL document CHEMBL1124752", "about": "“Cyclobut-A and cyclobut-G: broad-spectrum antiviral agents with potential utility for the therapy of AIDS” (J Med Chem, 1990)", "key": {"[1]": {"tested_on": "Human immunodeficiency virus 1", "test": "Tested for the determination of percentage protection at 1 uM concentrations against HIV-1 in ATH8 Cells", "type": "functional"}, "[2]": {"tested_on": "Human immunodeficiency virus 1", "test": "Tested for the determination of percentage protection at 100 uM concentrations against HIV-1 in ATH8 Cells", "type": "functional"}, "[3]": {"tested_on": "Human immunodeficiency virus 1", "test": "Tested for the determination of percentage protection at 20 uM concentrations against HIV-1 in ATH8 Cells", "type": "functional"}, "[4]": {"tested_on": "Human immunodeficiency virus 1", "test": "Tested for the determination of percentage protection at 5 uM concentrations against HIV-1 in ATH8 Cells", "type": "functional"}, "[5]": {"tested_on": "Human immunodeficiency virus 1", "test": "Tested for the determination of percentage toxicity at 20 uM concentrations against HIV-1 in ATH8 Cells", "type": "functional"}, "[6]": {"tested_on": "Human immunodeficiency virus 1", "test": "Tested for the determination of percentage toxicity at 5 uM concentrations against HIV-1 in ATH8 Cells", "type": "functional"}, "[7]": {"tested_on": "Human immunodeficiency virus 1", "test": "Tested for the determination of percentage toxicity at 1 uM concentrations against HIV-1 in ATH8 Cells", "type": "functional"}, "[8]": {"tested_on": "Human immunodeficiency virus 1", "test": "Tested for the determination of percentage toxicity at 100 uM concentrations against HIV-1 in ATH8 Cells", "type": "functional"}, "[9]": {"tested_on": "Human alphaherpesvirus 1", "test": "Tested for mean day to death of nonsurvivors against HSV-1 infection in mice at 200 mg/kg per day", "type": "functional"}, "[10]": {"tested_on": "Human alphaherpesvirus 1", "test": "Tested for mean day to death of nonsurvivors against HSV-1 infection in mice at 50 mg/kg per day", "type": "functional"}, "[11]": {"tested_on": "Human alphaherpesvirus 1", "test": "In vitro antiviral activity against herpesvirus, HSV-1,E-377 strain by plaque reduction assay in human foreskin fibroblasts", "type": "functional", "settings": "read-out: ED50 (the source's name)"}, "[12]": {"tested_on": "Human alphaherpesvirus 2", "test": "In vitro antiviral activity against herpesvirus,HSV-2,HEET strain by plaque reduction assay in human foreskin fibroblasts", "type": "functional", "settings": "read-out: ED50 (the source's name)"}, "[13]": {"tested_on": "Human alphaherpesvirus 1", "test": "Tested for mean day to death of nonsurvivors against HSV-1 infection in mice at 12.5 mg/kg per day", "type": "functional"}, "[14]": {"tested_on": "Human alphaherpesvirus 1", "test": "In vitro antiviral activity against herpesvirus, HSV-1, E-377 strain by plaque reduction assay in human foreskin fibroblasts.", "type": "functional", "settings": "read-out: ID50 (the source's name)"}, "[15]": {"test": "In vitro antiviral activity against herpesvirus, HSV-JEN strain by plaque reduction assay in human foreskin fibroblasts.", "type": "functional, herpes simplex virus", "settings": "Human alphaherpesvirus 1; read-out: ID50 (the source's name)"}, "[16]": {"tested_on": "Human alphaherpesvirus 2", "test": "In vitro antiviral activity against herpesvirus, HSV-2, JEN strain by plaque reduction assay in human foreskin fibroblasts", "type": "functional", "settings": "read-out: ED50 (the source's name)"}, "[17]": {"tested_on": "Human alphaherpesvirus 2", "test": "In vitro antiviral activity against herpesvirus, HSV-2, MS strain by plaque reduction assay in human foreskin fibroblasts", "type": "functional", "settings": "read-out: ED50 (the source's name)"}, "[18]": {"tested_on": "Human alphaherpesvirus 1", "test": "Number of survivors per number of HSV-1 infected mice treated with 12.5 mg/kg per day; 2/10", "type": "functional"}, "[19]": {"tested_on": "Human alphaherpesvirus 1", "test": "Number of survivors per number of HSV-1 infected mice treated with 200 mg/kg per day; 4/10", "type": "functional"}, "[20]": {"tested_on": "Human alphaherpesvirus 1", "test": "Number of survivors per number of HSV-1 infected mice treated with 50 mg/kg per day; 0/10", "type": "functional"}, "[21]": {"tested_on": "Human alphaherpesvirus 2", "test": "In vitro antiviral activity against herpesvirus, HSV-2, MS strain by plaque reduction assay in human foreskin fibroblasts.", "type": "functional", "settings": "read-out: ID50 (the source's name)"}, "[22]": {"tested_on": "Human alphaherpesvirus 2", "test": "In vitro antiviral activity against herpesvirus,HSV-2,X-79 strain by plaque reduction assay in human foreskin fibroblasts", "type": "functional", "settings": "read-out: ED50 (the source's name)"}, "[23]": {"tested_on": "Human alphaherpesvirus 2", "test": "In vitro antiviral activity against herpesvirus, HSV-2, X-79 strain by plaque reduction assay in human foreskin fibroblasts.", "type": "functional", "settings": "read-out: ID50 (the source's name)"}, "[24]": {"test": "In vitro antiviral activity against herpesvirus, HSV-HEET strain by plaque reduction assay in human foreskin fibroblasts.", "type": "functional, herpes simplex virus", "settings": "Human alphaherpesvirus 1; read-out: ID50 (the source's name)"}, "[25]": {"tested_on": "Raji", "test": "Tested for the inhibition of diffuse early antigen production assayed by immunofluorescent monoclonal antibody.", "type": "functional", "settings": "Homo sapiens"}, "[26]": {"tested_on": "Human alphaherpesvirus 3", "test": "In vitro antiviral activity tested against herpesvirus, VZV, Ellen strain by plaque reduction assay in human foreskin fibroblasts.", "settings": "Human alphaherpesvirus 3, read-out: ED50"}, "[27]": {"tested_on": "Human alphaherpesvirus 3", "test": "In vitro antiviral activity against herpesvirus, VZV, Ellen strain by plaque reduction assay in human foreskin fibroblasts.", "settings": "Human alphaherpesvirus 3, read-out: ID50"}, "[28]": {"tested_on": "Human alphaherpesvirus 3", "test": "In vitro antiviral activity tested against herpesvirus, VZV, OKA strain by plaque reduction assay in human foreskin fibroblasts.", "settings": "Human alphaherpesvirus 3, read-out: ED50"}, "[29]": {"tested_on": "Human alphaherpesvirus 3", "test": "In vitro antiviral activity against herpesvirus, VZV, OKA strain by plaque reduction assay in human foreskin fibroblasts.", "settings": "Human alphaherpesvirus 3, read-out: ID50"}, "[30]": {"species": "Homo sapiens", "test": "The drug concentration was determined to reduce proliferation of human foreskin fibroblasts to 50% of untreated controls in proliferation assay.", "type": "functional", "settings": "read-out: ID50 (the source's name)"}}}
{"smiles": "Cc1cn([C@H]2C[C@H](N=[N+]=[N-])[C@@H](CO)O2)c(=O)[nH]c1=O", "note": "[ZIDOVUDINE]", "values": [{"measurement": "Protection", "setting": "[1]", "result": 65, "unit": "%"}, {"measurement": "Protection", "setting": "[2]", "result": 47, "unit": "%"}, {"measurement": "Protection", "setting": "[3]", "result": 65, "unit": "%"}, {"measurement": "Protection", "setting": "[4]", "result": 96, "unit": "%"}, {"measurement": "Cytotoxicity", "setting": "[5]", "result": 54, "unit": "%"}, {"measurement": "Cytotoxicity", "setting": "[6]", "result": 30, "unit": "%"}, {"measurement": "Cytotoxicity", "setting": "[7]", "result": 3, "unit": "%"}, {"measurement": "Cytotoxicity", "setting": "[8]", "result": 54, "unit": "%"}]}
{"smiles": "Nc1nc2c(ncn2COCCO)c(=O)[nH]1", "note": "[ACYCLOVIR]", "values": [{"measurement": "MDD", "setting": "[9]", "result": 12.3}, {"measurement": "MDD", "setting": "[10]", "result": 8}, {"measurement": "EC50", "setting": "[11]", "result": 0.08, "unit": "µg/mL"}, {"measurement": "EC50", "setting": "[12]", "result": 0.06, "unit": "µg/mL"}, {"measurement": "MDD", "setting": "[13]", "result": 7.8}, {"measurement": "IC50", "setting": "[14]", "result": "> 100", "unit": "µg/mL"}, {"measurement": "IC50", "setting": "[15]", "result": "> 100", "unit": "µg/mL"}, {"measurement": "EC50", "setting": "[16]", "result": 0.07, "unit": "µg/mL"}, {"measurement": "EC50", "setting": "[17]", "result": 0.09, "unit": "µg/mL"}, {"measurement": "Survivors / treated", "setting": "[18]", "result": 2}, {"measurement": "Survivors / treated", "setting": "[19]", "result": 4}, {"measurement": "Survivors / treated", "setting": "[20]", "result": 0}, {"measurement": "IC50", "setting": "[21]", "result": "> 100", "unit": "µg/mL"}, {"measurement": "EC50", "setting": "[22]", "result": 0.1, "unit": "µg/mL"}, {"measurement": "IC50", "setting": "[23]", "result": "> 100", "unit": "µg/mL"}, {"measurement": "IC50", "setting": "[24]", "result": "> 100", "unit": "µg/mL"}, {"measurement": "EC50", "setting": "[25]; read-out: ED50 (the source's name)", "result": 3.8, "unit": "µg/mL"}, {"measurement": "IC50", "setting": "[25]; read-out: ID50 (the source's name)", "result": "> 100", "unit": "µg/mL"}, {"measurement": "EC50", "setting": "[26]", "result": 2.3, "unit": "µg/mL"}, {"measurement": "IC50", "setting": "[27]", "result": "> 100", "unit": "µg/mL"}, {"measurement": "EC50", "setting": "[28]", "result": 3.7, "unit": "µg/mL"}, {"measurement": "IC50", "setting": "[29]", "result": "> 100", "unit": "µg/mL"}, {"measurement": "IC50", "setting": "[30]", "result": 165, "unit": "µg/mL"}]}
